Source: patent publication EP0115472A2, “Pyrrolidinon derivatives and process for their preparation” (CIBA-GEIGY AG, priority 1983, dated 1984)

Tested on: Mäusen
Experiment: step down passive avoidance test (improvement of memory performance)
Format: in vivo, Mäuse
Conditions: Mus musculus, ip; mice, i.p. within 10 s after foot shock; retest after 24 h; compared with solvent controls; read-out: Dosis, bei der sich eine Verbesserung der Gedächtnisleistung zeigen lässt
From the text: Zur unmittelbaren Messung der Verbesserung der Gedächtnisleistung wird ein anderer passiver Vermeidungstest (step down passive avoidance test, Psychopharmacol. 63, 297-300 [1979]) verwendet: • Die Testvorrichtung besteht aus einer mit Tageslicht normal beleuchteten Box (50 x 50 x 50 cm) mit einem elektrisch leitenden Gitterrost, dessen Gitterstäbe (6 mm Durchmesser) in einem Abstand von jeweils 13 mm angeordnet sind. In der Mitte des Gitterrostes ist eine hölzerne Plattform (10 mm Höhe, 67 mm Durchmesser) angebracht, welche von einer Plastikröhre (20 cm hoch, 68 mm innerer Durchmesser) umgeben ist. Zur Durchführung des Trainings werden Gruppen von jeweils 30 männlichen Mäusen mit einem Körpergewicht von 20-22g verwendet, indem jeweils ein Tier auf die von der Plastikröhre umgebene Plattform gesetzt, nach 10 Sekunden die Plastikröhre entfernt und die Zeitdauer gemessen wird, welche das Tier zum Hinabsteigen und Berühren des Gitterrostes mit allen 4 Pfoten benötigt. Wenn alle 4 Pfoten den Gitterrost berühren, wird ein Fussschock (1 mA, 50 Hz, 1 Sekunde) verabreicht. Innerhalb von 10 Sekunden nach Verabreichung des Fussschocks werden die Testsubstanzen in Dosen von 3 mg/kg, 10 mg/kg und 30 mg/kg (für jede Dosis werden 30 Mäuse verwendet) als Lösung in physiologischer NaCl-Lösung oder deren Lösungsmittel (physiologische Natriumchloridlösung = Placebo) intraperitoneal verabreicht. […]

`NC(=O)CNC(=O)CNC(=O)CN1CCCC1=O` [N-[(2-Oxo-1-pyrrolidinyl)-acetyl]-glycyl-glycinamid] was tested. Which minimal effective dose did it give?
Its minimal effective dose is 10 mg/kg.
